Reference: patent US11680056B2, “MK2 inhibitors and uses thereof” (Xinthera, Inc., priority 2021, dated 2023)
Like-named read-outs stand apart in the source and are kept apart here.

Assays:
[1] = target: p38a/MK2 (Homo sapiens (Human), UniProt P49137+Q16539); experiment: p38a/MK2 biochemical assay: activation of MK2 by p38, FITC-HSP27 peptide phosphorylation (IMAP FP); details: 10-point 1:3 dilution, 60 pM active p38a, 1 nM inactive MK2, 10 μM ATP, 2 h incubation
Method: (§1) Expression vectors of the recombinant MK2 and PRAK kinases were constructed by cloning of the codon optimized gene sequences of MK2 (Uniprot ID P49137, amino acid fragment F46-H400), or PRAK (Uniprot ID Q81W41, amino acid fragment M1-Q471) into pGEX-4T1 (GE) for over expression of these kinases with N-terminal GST-tag. Protein expression was carried out in E. coli BL21 by growing the hosts in TB medium, induction of protein expression with 0.5 mM IPTG at approximate 0.8 OD600, and incubation of the cultures at 18° C. for 14-20 hours afterwards. The harvested cells were resuspended in […] of Lysis buffer (50 mM Tris-HCl, pH 8.0, 500 mM NaCl, 1 mM DTT, 5% glycerol, and 1 mM PMSF) per gram of wet cell mass and homogenized at 4° C. in a microfluidizer (ATS, Suzhou, China) at 14,000 psi pressure, 3 passes. The cell lysates were clarified by centrifugation and the supernatants containing the GST-fusion proteins were purified by affinity chromatography using GSH-Sepharose (GE) gravity flow columns pre-equilibrated in Buffer A (50 mM Tris-HCl, pH 8.0, 500 mM NaCl, 1 mM DTT, and 5% glycerol). After thorough washing of the columns with Buffer A, the bound GST-proteins were eluted by Buffer B (50 mM Tris, pH 8.0, 500 mM NaCl, 1 mM DTT, 5% glycerol, 10 mM glutathione), followed by size-exclusion purification on Superdex 200 column equilibrated in Buffer A. The purified proteins were concentrated to approximately 1 mg/ml and stored at −80° C.
This study evaluates the inhibitory potency of invention compound on p38/MK2 pathway vs p38/PRAK pathway. More specially the compound concentration (IC50) was determined that inhibited half of the maximal activation of MK2 or PRAK by p38. MK2 activation study was set up without or with a serial of 10-point 1:[…], and PRAK activation study was set up without or with a serial of 10-point 1:3 dilution of invention compound at top dose of 300 μM. The MK2 and PRAK activity were determined by the phosphorylation level of HSP27 peptide conjugated with FITC.
(§2) After 2 h incubation of the reaction mixture with various concentration of invention compound (200 nL), 60 μL 1×IMAP solution Mixture (Molecular Devices, Cat R8127) was added to the reaction mixture and incubated for another half hour. The signal was then read by Synergy™ Neo2 Multi-Mode Microplate Reader with filter setting (Ex/Em=485 nm/FITC FP-P pol 528 nm & FITC FP-S pol 528 nm)
(§3) The signal was then normalized to vehicle control and fitted in Xfit to generate IC50. The selectivity of MK2 over PRAK was calculated by the formular Selectivity=IC50 of PRAK/IC50 of MK2.

[2] = target: p38a/PRAK (Homo sapiens (Human), UniProt Q16539); experiment: p38a/PRAK biochemical assay: activation of PRAK by p38, FITC-HSP27 peptide phosphorylation (IMAP FP); details: 10-point 1:3 dilution, top dose 300 μM; 60 pM active p38a, 1 nM inactive PRAK, 10 μM ATP, 2 h incubation; read-out: p38a/PRAK Enzyme pIC50 (converted)
Method: as §1
This study evaluates the inhibitory potency of invention compound on p38/MK2 pathway vs p38/PRAK pathway. More specially the compound concentration (IC50) was determined that inhibited half of the maximal activation of MK2 or PRAK by p38. MK2 activation study was set up without or with a serial of 10-point 1:3 dilution of invention compound at top dose of […], and PRAK activation study was set up without or with a serial of 10-point 1:3 dilution of invention compound at top dose of 300 μM. The MK2 and PRAK activity were determined by the phosphorylation level of HSP27 peptide conjugated with FITC.
as §2, §3

[3] = top dose 1 μM, read-out: p38a/MK2 (1 μM) Enzyme pIC50 (converted)
[4] = top dose 10 μM, read-out: p38a/MK2 (10 μM) Enzyme pIC50 (converted)

Chain of p38a/PRAK (Q16539 whole entry): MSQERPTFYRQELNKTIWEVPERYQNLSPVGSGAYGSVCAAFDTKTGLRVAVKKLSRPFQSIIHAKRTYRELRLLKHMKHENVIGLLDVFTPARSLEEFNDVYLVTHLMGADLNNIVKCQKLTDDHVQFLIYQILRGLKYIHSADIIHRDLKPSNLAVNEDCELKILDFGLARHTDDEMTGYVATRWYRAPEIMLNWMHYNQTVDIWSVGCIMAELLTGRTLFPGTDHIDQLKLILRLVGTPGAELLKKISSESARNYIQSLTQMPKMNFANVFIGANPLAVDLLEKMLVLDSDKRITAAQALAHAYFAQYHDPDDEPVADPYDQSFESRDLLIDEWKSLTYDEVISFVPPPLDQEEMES
Chain of p38a/MK2 (P49137 46-400): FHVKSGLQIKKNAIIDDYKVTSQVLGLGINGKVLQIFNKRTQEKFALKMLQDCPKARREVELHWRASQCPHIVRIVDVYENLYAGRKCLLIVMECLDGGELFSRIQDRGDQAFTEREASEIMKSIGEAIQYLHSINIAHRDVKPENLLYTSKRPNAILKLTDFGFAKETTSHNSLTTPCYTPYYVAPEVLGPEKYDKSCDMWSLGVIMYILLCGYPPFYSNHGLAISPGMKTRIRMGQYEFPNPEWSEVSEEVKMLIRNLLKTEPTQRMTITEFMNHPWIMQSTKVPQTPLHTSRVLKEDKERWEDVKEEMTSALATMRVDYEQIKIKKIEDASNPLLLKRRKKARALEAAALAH
Chain of p38a/MK2 (Q16539 whole entry, the tested form may be a part): as the sequence (Q16539 whole entry) above

Row | Compound | IC50 [1, 3] [µM] | IC50 [2] [µM] | p38a/MK2 (10 μM) Enzyme pIC50 ([1]; top dose 10 μM) | IC50 [1, 4] [µM]
1 | Cc1cnc(-n2ccc(C(C)(C)CO)n2)cc1-n1c(C)cc(OCc2ncc(F)cc2F)c(Cl)c1=O (single isomer, unassigned) [Example 37B, rel-3-chloro-4-[(3,5-difluoropyridin-2-yl)methoxy]-2′-[3-(1-hydroxy-2-methylpropan-2-yl)pyrazol-1-yl]-5′,6-dimethyl-[1,4′-bipyridin]-2-one] | > 1 | > 316 |  | 
2 | Cc1cnc(-c2ccnc(C(C)(C)O)n2)cc1-n1c(C)cc(COc2ncc(F)cc2F)c(Cl)c1=O (atropisomer, axis not shown) [Example 15, 3-chloro-4-{[(3,5-difluoropyridin-2-yl)oxy]methyl}-2′-[2-(2-hydroxypropan-2-yl)pyrimidin-4-yl]-5′,6-dimethyl-[1,4′-bipyridin]-2-one] |  | 158 | 5.4 | 
3 | Cc1cnc(-c2cccc([C@H](O)CO)n2)cc1-n1c(C)cc(OCc2ncc(F)cc2F)c(Cl)c1=O (single isomer, unassigned) [Example 34B, rel-3-chloro-4-[(3,5-difluoropyridin-2-yl)methoxy]-2′-[6-(1,2-dihydroxyethyl)pyridin-2-yl]-5′,6-dimethyl-[1,4′-bipyridin]-2-one] |  | 6.31 |  | 0.0126
4 | Cc1cnc(-c2ccnc(C3CC(O)C3)n2)cc1-n1c(C)cc(OCc2ncc(F)cc2F)c(Cl)c1=O (single isomer, unassigned) [Example 26B, rel-3-chloro-4-((3,5-difluoropyridin-2-yl)methoxy)-2′-(2-(3-hydroxycyclobutyl)pyrimidin-4-yl)-5′,6-dimethyl-2H-[1,4′-bipyridin]-2-one] |  | > 316 |  | 1.58
5 | Cc1cnc(-c2ccc3c(n2)C(C)(O)CC3)cc1-n1c(C)cc(OCc2ncc(F)cc2F)c(Cl)c1=O (single isomer, unassigned) [Example 32C] |  | 6.31 |  | 0.0631
6 | Cc1cnc(-c2ccn(C(C)(C)CO)n2)cc1-n1c(C)cc(OCc2ncc(F)cc2F)c(Cl)c1=O (single isomer, unassigned) [Example 25B, rel-3-chloro-4-[(3,5-difluoropyridin-2-yl)methoxy]-2′-[1-(1-hydroxy-2-methylpropan-2-yl)pyrazol-3-yl]-5′,6-dimethyl-[1,4′-bipyridin]-2-one] |  | > 316 |  | 3.16
7 | Cc1cnc(-c2ccnc(C3(CO)CC3)n2)cc1-n1c(C)cc(OCc2ncc(F)cc2F)c(Cl)c1=O (single isomer, unassigned) [Example 21B, rel-3-chloro-4-((3,5-difluoropyridin-2-yl)methoxy)-2′-(2-(1-(hydroxymethyl)cyclopropyl)pyrimidin-4-yl)-5′,6-dimethyl-2H-[1,4′-bipyridin]-2-one] | 0.00316 | 2 |  | 
8 | COCC(C)(O)c1nccc(-c2cc(-n3c(C)cc(OCc4ncc(F)cc4F)c(Cl)c3=O)c(C)cn2)n1 (racemic) [Example 55, 3-chloro-4-[(3,5-difluoropyridin-2-yl)methoxy]-2′-[2-(2-hydroxy-1-methoxypropan-2-yl)pyrimidin-4-yl]-5′,6-dimethyl-[1,4′-bipyridin]-2-one] | 0.0631 | 10 |  | 
9 | Cc1cnc(-c2ccnc([C@@](C)(O)C3CC3)n2)cc1-n1c(C)cc(OCc2ncc(F)cc2F)c(Cl)c1=O (single isomer, unassigned) [Example 6D, rel-3-chloro-2′-[2-(1-cyclopropyl-1-hydroxyethyl)pyrimidin-4-yl]-4-[(3,5-difluoropyridin-2-yl)methoxy]-5′,6-dimethyl-[1,4′-bipyridin]-2-one] |  | > 316 |  | 2.51
10 | Cc1cnc(-c2ccnc(C3(CO)CC3)n2)cc1-n1c(C)cc(OCc2ncc(F)cc2F)c(Cl)c1=O (single isomer, unassigned) [Example 21A, rel-3-chloro-4-((3,5-difluoropyridin-2-yl)methoxy)-2′-(2-(1-(hydroxymethyl)cyclopropyl)pyrimidin-4-yl)-5′,6-dimethyl-2H-[1,4′-bipyridin]-2-one] |  | > 316 |  | > 10
11 | Cc1cnc(-c2ccnc([C@](C)(O)C3CC3)n2)cc1-n1c(C)cc(OCc2ncc(F)cc2F)c(Cl)c1=O (single isomer, unassigned) [Example 6C, rel-3-chloro-2′-[2-(1-cyclopropyl-1-hydroxyethyl)pyrimidin-4-yl]-4-[(3,5-difluoropyridin-2-yl)methoxy]-5′,6-dimethyl-[1,4′-bipyridin]-2-one] |  | > 316 |  | 3.16
12 | Cc1cnc(-c2cccc(C(C)(O)CO)n2)cc1-n1c(C)cc(OCc2ncc(F)cc2F)c(Cl)c1=O (single isomer, unassigned) [Example 36C, rel-3-chloro-4-[(3,5-difluoropyridin-2-yl)methoxy]-2′-[6-(1,2-dihydroxypropan-2-yl)pyridin-2-yl]-5′,6-dimethyl-[1,4′-bipyridin]-2-one] | > 1 | > 316 |  | 
13 | Cc1cnc(-c2nc(C(C)(C)O)ncc2C2CC2)cc1-n1c(C)cc(OCc2ncc(F)cc2F)c(Cl)c1=O (single isomer, unassigned) [Example 31B, rel-3-chloro-2′-(5-cyclopropyl-2-(2-hydroxypropan-2-yl)pyrimidin-4-yl)-4-((3,5-difluoropyridin-2-yl)methoxy)-5′,6-dimethyl-2H-[1,4′-bipyridin]-2-one] |  | > 316 |  | > 10
14 | Cc1cc(COc2cc(C)n(-c3cc(-c4ccnc(C(C)(C)O)n4)ncc3C)c(=O)c2Cl)ncc1F (single isomer, unassigned) [Example 22B, rel-3-chloro-4-[(5-fluoro-4-methylpyridin-2-yl)methoxy]-2′-[2-(2-hydroxypropan-2-yl)pyrimidin-4-yl]-5′,6-dimethyl-[1,4′-bipyridin]-2-one] |  | > 316 |  | > 10
15 | Cc1cnc(-c2ccnc(C(O)C3CC3)n2)cc1-n1c(C)cc(OCc2ncc(F)cc2F)c(Cl)c1=O (single isomer, unassigned) [Example 35A, rel-3-chloro-2′-{2-[cyclopropyl(hydroxy)methyl]pyrimidin-4-yl}-4-[(3,5-difluoropyridin-2-yl)methoxy]-5′,6-dimethyl-[1,4′-bipyridin]-2-one] | 0.0501 | 10 |  | 
16 | Cc1cnc(-n2ccc(C(C)(C)O)n2)c(C)c1-n1c(C)cc(OCc2ncc(F)cc2F)c(Cl)c1=O (single isomer, unassigned) [Example 50A, rel-3-chloro-4-[(3,5-difluoropyridin-2-yl)methoxy]-2′-[3-(2-hydroxypropan-2-yl)pyrazol-1-yl]-3′,5′,6-trimethyl-[1,4′-bipyridin]-2-one] | 0.0126 | 10 |  | 
17 | [2H]C([2H])(Oc1cc(C)n(-c2c(C)cnc(-c3ccnc(C(O)(C([2H])([2H])[2H])C([2H])([2H])[2H])n3)c2F)c(=O)c1Cl)c1ncc(F)cc1F (single isomer, unassigned) [Example 67A, rel-3-chloro-4-((3,5-difluoropyridin-2-yl)methoxy-d2)-3′-fluoro-2′-(2-(2-hydroxypropan-2-yl-1,1,1,3,3,3-d6)pyrimidin-4-yl)-5′,6-dimethyl-2H-[1,4′-bipyridin]-2-one] | 0.00158 | 0.316 |  | 
